Experimental data reported in BindingDB's records for doi:10.7270/Q28G8J4C (Broad Institute, 2009).
Where a name gives a salt, the structure may show the parent alone.

biological target: T1, POsterior Segregation (Caenorhabditis elegans, UniProt G5EF15); experiment: disruptors of C. elegans POS-1 RNA interaction – biochemical, fluorescence polarization, dose response (AID 1964)
T1 sequence (G5EF15 whole entry): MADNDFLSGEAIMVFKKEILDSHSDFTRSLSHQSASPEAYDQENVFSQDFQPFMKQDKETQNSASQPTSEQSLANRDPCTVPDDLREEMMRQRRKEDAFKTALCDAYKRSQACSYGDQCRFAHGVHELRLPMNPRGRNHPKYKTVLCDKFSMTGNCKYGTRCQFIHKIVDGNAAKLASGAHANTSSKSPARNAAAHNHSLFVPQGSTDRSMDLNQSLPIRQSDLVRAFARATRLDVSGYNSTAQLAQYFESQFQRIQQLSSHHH

Row | Structure (SMILES) | EC50
1 | CN1C(=O)/C(=C/c2ccc(-c3ccccc3[N+](=O)[O-])o2)S/C1=N/c1ccc(Cl)c(C(=O)O)c1 [2-Chloro-5-[3-methyl-5-[1-[5-(2-nitro-phenyl)-furan-2-yl]-meth-(Z)-ylidene]-4-oxo-thiazolidin-(2Z)-ylideneamino]-benzoic acid] | 36.3 µM
2 | C=CCOc1cccc(C2C(C(=O)c3ccc(C)o3)C(=O)C(=O)N2c2nccs2)c1 (stereo unspecified) [3-(5-methylfuran-2-yl)carbonyl-4-oxidanyl-2-(3-prop-2-enoxyphenyl)-1-(1,3-thiazol-2-yl)-2H-pyrrol-5-one] | > 300 µM
3 | O=C1N=C(O)C(C2=c3cc([N+](=O)[O-])ccc3=NC2=O)S1 (stereo unspecified) [MLS001163276] | 13.2 µM
4 | COc1ccc(C(=O)CC=Nc2ccc([N+](=O)[O-])cc2C)c(OC)c1 [(E)-1-(2,4-dimethoxyphenyl)-3-(2-methyl-4-nitro-anilino)prop-2-en-1-one] | > 300 µM
5 | Oc1ccc(CN=Nc2ncnc3nc[nH]c23)cc1 [SMR000320358] | > 300 µM
6 | [H]/N=C1/OC23CCCCC2C(C#N)(C#N)C1(C#N)C(c1ccc(OC)cc1)O3 (stereo unspecified) [MLS000554241] | 12.4 µM
7 | C=CCSc1nnc(N2C(=O)C(=O)C(C(=O)c3ccco3)C2c2ccc(F)cc2)s1 (stereo unspecified) [1-[5-(allylthio)-1,3,4-thiadiazol-2-yl]-5-(4-fluorophenyl)-4-(2-furoyl)-3-hydroxy-3-pyrrolin-2-one] | 114 µM
8 | O=C(Cc1nc2ccccc2n(-c2ccccc2)c1=O)c1ccccc1 [(3Z)-3-phenacylidene-1-phenyl-4H-quinoxalin-2-one] | 78.2 µM
9 | Oc1ccc(CN=Nc2ccc(Cl)nn2)c(O)c1O | 50 µM
10 | CCN(CC)CCNC=C1C(=O)NC(=O)N(Cc2ccccc2)C1=O [(5Z)-1-benzyl-5-[[2-(diethylamino)ethylamino]methylene]barbituric acid] | > 300 µM
11 | COc1ccc(C2C(C(=O)c3ccco3)C(=O)C(=O)N2c2nnc(C)s2)cc1 (stereo unspecified) [3-(furan-2-carbonyl)-4-hydroxy-2-(4-methoxyphenyl)-1-(5-methyl-1,3,4-thiadiazol-2-yl)-2H-pyrrol-5-one] | 109 µM
12 | COc1ccc(C=C2CCCC(C(=O)C(F)(F)F)C2=O)cc1 (stereo unspecified) [SMR000142699] | 36 µM
13 | CC(C)c1nnc(N2C(=O)C(=O)C(C(=O)c3cccs3)C2c2ccccc2)s1 (stereo unspecified) [3-hydroxy-1-(5-isopropyl-1,3,4-thiadiazol-2-yl)-5-phenyl-4-(2-thenoyl)-3-pyrrolin-2-one] | 33.9 µM
14 | C=CCOc1cccc(C2C(C(=O)c3cc4ccccc4o3)C(=O)C(=O)N2c2cc(C)on2)c1 (stereo unspecified) [3-(1-benzofuran-2-carbonyl)-4-hydroxy-1-(5-methyl-1,2-oxazol-3-yl)-2-(3-prop-2-enoxyphenyl)-2H-pyrrol-5-one] | > 300 µM
15 | O=C(NN=Cc1c(O)ccc2ccccc12)Nc1ccccc1 | 105 µM
16 | Cc1ccc(C2C3CN(C(C)C)CCC3=C(C#N)C(=N)C2(C#N)C#N)cc1 (stereo unspecified) [SMR000034220] | 7.15 µM
17 | C[C@H]1c2cccc(O)c2C(=O)C2C(=O)[C@]3(O)C(=O)C(C(N)=O)C(=O)[C@@H](N(C)C)C3C(O)C21 (stereo partly drawn) [(2Z,4S,5S,6R,12aS)-2-[amino(hydroxy)methylidene]-4-(dimethylamino)-5,10,11,12a-tetrahydroxy-6-methyl-4a,5,5a,6-tetrahydro-4H-tetracene-1,3,12-trione;ethanol;hydrate;hydrochloride] | > 300 µM
18 | Oc1csc(N=NCc2cccs2)n1 [2-[2-(thiophen-2-ylmethylidene)hydrazinyl]-1,3-thiazol-4-one] | > 300 µM
19 | O=C(c1ccccc1)c1[nH]n(-c2ccccc2)c2c(O)n(-c3ccccc3Cl)c(=O)c1-2 [SMR000212371] | > 300 µM
20 | O=C(O)c1ccccc1N=NCc1c(Sc2nnnn2-c2ccccc2)nc2ccccn2c1=O [MLS000775267] | > 300 µM
21 | COc1ccc(C2CC(=O)C(=CNCCCO)C(=O)C2)cc1 (stereo unspecified) [2-[(3-hydroxypropylamino)methylidene]-5-(4-methoxyphenyl)cyclohexane-1,3-dione] | 34.8 µM
22 | C/N=C1/S/C(=C\c2ccc(N3CCCC3)c(F)c2)C(=O)N1C [(5Z)-5-(3-fluoro-4-pyrrolidino-benzylidene)-3-methyl-2-methylimino-thiazolidin-4-one] | 5.9 µM
23 | Cc1ccc(N=CCC(=O)c2sc(-c3ccccc3)nc2C)cc1 [(E)-1-(4-methyl-2-phenyl-1,3-thiazol-5-yl)-3-(4-toluidino)-2-propen-1-one] | 46.4 µM
24 | COc1cc(C2C3=C(CCCC3=O)OC(=N)C2C#N)cc(OC)c1OC(=O)N1CCOCC1 (stereo unspecified) [4-(2-amino-3-cyano-5-oxo-5,6,7,8-tetrahydro-4H-chromen-4-yl)-2,6-dimethoxyphenyl morpholine-4-carboxylate] | > 300 µM
25 | N#CCC(=N)C(C#N)C#N [1,1,3-tricyano-2-amino-1-propene] | 54.9 µM
26 | O=[N+]([O-])c1cc/c(=N\c2ccccc2O)c2no[nH]c1-2 [MLS001206694] | 24.4 µM
